The source made the active and inactive calls. The calls are words filed in the database; no cut-off is given here.
Tests used:
[1] = test system: Aortic ring; test: Induction of contraction in Albino Wistar rat aortic ring assessed as Emax of hU-II at 0.1 uM incubated for 30 mins in presence of hU-II (reference value: 214.5 +/- 10.51 dyne/mg); assay type: functional, Aorta; settings: 0.5 h
[2] = test system: Aortic ring; test: Induction of contraction in Albino Wistar rat aortic ring assessed as Emax of [Ala1]U-II at 0.1 uM incubated for 30 mins in presence of [Ala1]U-II (reference value: 153.3 +/- 10.75 dyne/mg); assay type: functional, Aorta; settings: 0.5 h
[3] = test system: Aortic ring; test: Induction of contraction in Albino Wistar rat aortic ring assessed as Emax of [Ala1]U-II at 10 uM incubated for 30 mins in presence of [Ala1]U-II (reference value: 323 +/- 30.45 dyne/mg); assay type: functional, Aorta; settings: 0.5 h
[4] = test system: Aortic ring; test: Induction of contraction in Albino Wistar rat aortic ring at 1 to 30 nM; assay type: functional, tissue-based; settings: Aorta, dose 1-30 nM
[5] = test system: Aortic ring; test: Induction of contraction in Albino Wistar rat aortic ring assessed as Emax of [Ala1]U-II at 1 uM incubated for 30 mins in presence of [Ala1]U-II (reference value: 391.6 +/- 38.83 dyne/mg); assay type: functional, Aorta; settings: 0.5 h
[6] = test system: Aortic ring; test: Induction of contraction in Albino Wistar rat aortic ring assessed as Emax of hU-II at 1 uM incubated for 30 mins in presence of hU-II (reference value: 238.4 +/- 9.53 dyne/mg); assay type: functional, Aorta; settings: 0.5 h
[7] = test system: Aortic ring; test: Induction of contraction in Albino Wistar rat aortic ring assessed as Emax of U-II(4-11) at 0.1 uM incubated for 30 mins in presence of U-II(4-11) (reference value: 159.8 +/- 7.3 dyne/mg); assay type: functional, Aorta; settings: 0.5 h
[8] = test system: Aortic ring; test: Induction of contraction in Albino Wistar rat aortic ring assessed as Emax of U-II(4-11) at 1 uM incubated for 30 mins in presence of U-II(4-11) (reference value: 152.4 +/- 5.1 dyne/mg); assay type: functional, Aorta; settings: 0.5 h
[9] = test system: Aortic ring; test: Induction of contraction in Albino Wistar rat aortic ring assessed as Emax of U-II(4-11) at 10 uM incubated for 30 mins in presence of U-II(4-11) (reference value: 242.6 +/- 20.63 dyne/mg); assay type: functional, Aorta; settings: 0.5 h
[10] = test system: Aortic ring; test: Induction of contraction in Albino Wistar rat aortic ring assessed as Emax of hU-II at 10 uM incubated for 30 mins in presence of hU-II (reference value: 279.9 +/- 11.02 dyne/mg); assay type: functional, Aorta; settings: 0.5 h
[11] = test system: Aortic ring; test: Induction of contraction in Albino Wistar rat aortic ring assessed as Emax of hU-II at 0.1 uM incubated for 30 mins in presence of hU-II (reference value: 238.4 +/- 9.53 dyne/mg); assay type: functional, Aorta; settings: 0.5 h
[12] = test system: Aortic ring; test: Induction of contraction in Albino Wistar rat aortic ring assessed as Emax of [Ala1]U-II at 0.1 uM incubated for 30 mins in presence of [Ala1]U-II (reference value: 391.6 +/- 38.83 dyne/mg); assay type: functional, Aorta; settings: 0.5 h
[13] = test system: Aortic ring; test: Induction of contraction in Albino Wistar rat aortic ring assessed as Emax of U-II(4-11) at 10 uM incubated for 30 mins in presence of U-II(4-11) (reference value: 159.8 +/- 7.39 dyne/mg); assay type: functional, Aorta; settings: 0.5 h
[14] = test system: Aortic ring; test: Induction of contraction in Albino Wistar rat aortic ring assessed as Emax of hU-II at 10 uM incubated for 30 mins in presence of hU-II (reference value: 251.4 +/- 15.43 dyne/mg); assay type: functional, Aorta; settings: 0.5 h
[15] = test system: Aortic ring; test: Induction of contraction in Albino Wistar rat aortic ring assessed as Emax of [Ala1]U-II at 10 uM incubated for 30 mins in presence of [Ala1]U-II (reference value: 220.3 +/- 17.48 dyne/mg); assay type: functional, Aorta; settings: 0.5 h
[16] = test system: Aortic ring; test: Induction of contraction in Albino Wistar rat aortic ring assessed as Emax of U-II(4-11) at 0.1 uM incubated for 30 mins in presence of U-II(4-11) (reference value: 152.4 +/- 5.1 dyne/mg); assay type: functional, Aorta; settings: 0.5 h
[17] = test system: Aortic ring; test: Induction of contraction in Albino Wistar rat aortic ring assessed as Emax of hU-II at 1 uM incubated for 30 mins in presence of hU-II (reference value: 279.9 +/- 11.02 dyne/mg); assay type: functional, Aorta; settings: 0.5 h
[18] = test system: Aortic ring; test: Induction of contraction in Albino Wistar rat aortic ring assessed as Emax of U-II(4-11) at 1 uM incubated for 30 mins in presence of U-II(4-11) (reference value: 242.6 +/- 20.63 dyne/mg); assay type: functional, Aorta; settings: 0.5 h
[19] = biological target: T1, Urotensin-2 receptor (Homo sapiens) (UniProt Q9UKP6); test: Modulation of human UTR stably expressed in HEK293 cells assessed as increase in Ca2+ level at 0.1 to 100 nM by Fura 2-AM dye based calcium mobilization assay; assay type: functional, cell-based; settings: dose 0.1-100 nM
T1 sequence (whole entry): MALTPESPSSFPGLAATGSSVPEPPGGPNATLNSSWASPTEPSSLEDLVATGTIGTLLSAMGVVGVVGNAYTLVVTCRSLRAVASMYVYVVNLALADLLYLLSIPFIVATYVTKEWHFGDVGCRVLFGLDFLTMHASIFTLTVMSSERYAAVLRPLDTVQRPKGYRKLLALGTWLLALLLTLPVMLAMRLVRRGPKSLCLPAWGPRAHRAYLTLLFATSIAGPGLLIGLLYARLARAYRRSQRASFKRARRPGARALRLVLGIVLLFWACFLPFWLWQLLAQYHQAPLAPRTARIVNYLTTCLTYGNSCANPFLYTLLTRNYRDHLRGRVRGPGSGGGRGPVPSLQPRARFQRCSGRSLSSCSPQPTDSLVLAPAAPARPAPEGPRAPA

[20] = test system: Aortic ring; test: Induction of contraction in Albino Wistar rat aortic ring assessed as Emax of [Ala1]U-II at 1 uM incubated for 30 mins in presence of [Ala1]U-II (reference value: 323 +/- 30.45 dyne/mg); assay type: functional, Aorta; settings: 0.5 h

SMILES: CC(C)[C@H](NC(=O)[C@@H]1CSSC(C)(C)[C@H](NC(=O)[C@H](C)NC(=O)[C@@H]2CCCN2C(=O)[C@@H](NC(=O)[C@H](C)N)[C@@H](C)O)C(=O)N[C@@H](Cc2ccccc2)C(=O)N[C@H](Cc2c[nH]c3ccccc23)C(=O)N[C@@H](CCCN)C(=O)N[C@@H](Cc2ccc(O)cc2)C(=O)N1)C(=O)O
- Emax [1]: 386.5 dyn/mg
- Emax [2]: 406.4 dyn/mg
- Emax [3]: 457.6 dyn/mg
- Activity [4]: inactive
- Emax [5]: 593 dyn/mg
- Emax [6]: 231.1 dyn/mg
- Emax [7]: 354.4 dyn/mg
- Emax [8]: 502.2 dyn/mg
- Emax [9]: 261.8 dyn/mg
- Emax [10]: 126.2 dyn/mg

SMILES: CC(C)[C@H](NC(=O)[C@@H]1CSSC(C)(C)[C@H](NC(=O)[C@H](CC(=O)O)NC(=O)[C@@H]2CCCN2C(=O)[C@@H](NC(=O)[C@@H](N)CCO)[C@@H](C)O)C(=O)N[C@@H](Cc2ccccc2)C(=O)N[C@H](Cc2c[nH]c3ccccc23)C(=O)N[C@@H](CCCN)C(=O)N[C@@H](Cc2ccc(O)cc2)C(=O)N1)C(=O)O
- Emax [11]: 179.2 dyn/mg
- Emax [12]: 251.5 dyn/mg
- Emax [13]: 111.3 dyn/mg
- Emax [14]: 181.9 dyn/mg
- Emax [15]: 148.9 dyn/mg
- Emax [16]: 120.9 dyn/mg
- Emax [17]: 188.6 dyn/mg
- Emax [18]: 93.38 dyn/mg
- Activity [4]: inactive
- Activity [19]: inactive
- Emax [20]: 119.1 dyn/mg
